Measured values: paper PMC7123187 (HCV: The Journey from Discovery to a Cure, 2018)
Read-outs that look alike come from different tables or passages of the source.

Assays:
[1] = target: recombinant wild-type NS5B (genotype 1b, Con1) (Hepatitis C virus genotype 1b, UniProt Q9WMX2); assay: biochemical
[2] = rat; for liver levels: satellite study
[3] = physchem; conditions: pKa values, zwitterionic form
[4] = target: human phosphodiesterase 4; assay: Phosphodiesterase 4 functional assay; format: biochemical; conditions: read-out: IC50 phosphodiesterase 4 functional assay
[5] = tested on: HCV genotype 1b (Con1) replicon in Huh-7; assay: microbe, parasite or virus in culture; format: cell-based; conditions: Hepatitis C virus, GETYPE1B, Huh-7, read-out: potency in the replicon assays
[6] = target: NS5B P495L (Hepatitis C virus genotype 1b, UniProt Q9WMX2, P2914L); assay: biochemical
[7] = target: human pregnane X receptor (hPXR) (Homo sapiens, UniProt O75469); conditions: at 5.56 μM
[8] = tested on: BVDV, polio, rhino, corona, coxsackie, influenza, and human immunodeficiency viruses (HIV); assay: organism not typed; format: cell-based; conditions: read-out: EC50 against panel of viruses
[9] = tested on: chronic HCV genotype 1 infection; conditions: patients, cited from earlier work
[10] = in vitro; format: in vitro ADME; conditions: human, microsomes
[11] = in vitro; conditions: monkey, microsomes
[12] = target: CYP 3A4 (Homo sapiens, UniProt P08684); assay: in vitro
[13] = in vitro
[14] = in vivo; conditions: rat

CYP 3A4, sequence (P08684 whole entry): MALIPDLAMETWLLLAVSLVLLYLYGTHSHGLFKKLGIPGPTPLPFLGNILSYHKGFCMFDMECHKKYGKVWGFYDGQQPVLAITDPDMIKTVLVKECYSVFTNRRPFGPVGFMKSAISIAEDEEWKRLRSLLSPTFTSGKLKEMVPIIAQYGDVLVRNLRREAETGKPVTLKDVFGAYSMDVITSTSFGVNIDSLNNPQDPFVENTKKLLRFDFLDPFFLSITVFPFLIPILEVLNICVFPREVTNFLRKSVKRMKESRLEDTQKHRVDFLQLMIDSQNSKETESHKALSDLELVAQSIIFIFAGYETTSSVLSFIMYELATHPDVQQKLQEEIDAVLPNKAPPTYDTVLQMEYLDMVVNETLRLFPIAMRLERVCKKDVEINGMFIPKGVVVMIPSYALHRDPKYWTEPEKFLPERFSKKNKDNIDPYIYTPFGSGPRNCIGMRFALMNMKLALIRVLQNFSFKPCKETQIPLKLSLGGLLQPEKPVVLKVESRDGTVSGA
human pregnane X receptor (hPXR), sequence (O75469 whole entry): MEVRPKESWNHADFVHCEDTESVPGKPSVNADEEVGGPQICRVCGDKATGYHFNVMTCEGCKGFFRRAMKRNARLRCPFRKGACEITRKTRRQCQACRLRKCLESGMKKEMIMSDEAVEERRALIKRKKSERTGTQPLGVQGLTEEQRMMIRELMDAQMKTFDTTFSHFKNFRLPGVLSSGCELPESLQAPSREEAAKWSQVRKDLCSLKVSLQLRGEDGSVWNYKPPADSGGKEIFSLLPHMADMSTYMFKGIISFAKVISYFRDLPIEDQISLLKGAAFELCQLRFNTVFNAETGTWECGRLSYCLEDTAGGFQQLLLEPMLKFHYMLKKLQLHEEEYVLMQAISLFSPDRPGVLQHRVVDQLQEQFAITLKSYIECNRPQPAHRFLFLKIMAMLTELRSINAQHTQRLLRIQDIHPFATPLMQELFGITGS

Structure (SMILES): COc1ccc2c(c1)[C@@H]1C[C@]1(C(=O)N1[C@@H]3CC[C@H]1CN(C)C3)Cn1c-2c(C2CCCCC2)c2ccc(C(=O)NS(=O)(=O)N(C)C)cc21 [Compound 66, beclabuvir]
- IC50 [1]: 0.02 µM
- liver levels ([2]; 4 h following oral dosing): 24,400 nM
- liver levels ([2]; 24 h following oral dosing): 1,700 nM
- Cl ([2]; in vivo, iv, 5 mg/kg): 3.5 (±0.8) mL/min/kg
- pKa [3]: 4.6
- IC50 [4]: > 10 µM
- EC50 [5]: < 0.01 µM
- IC50 [6]: 0.19 µM
- hPXR transactivation Y max [7]: 8.1 ± 1.9
- EC50 [8]: > 14 µM
- decline in viral load ([9]; 300 mg single dose, 24 h post-dosing): approximately 2.5 log10 IU/mL
- tolerability ([9]; single doses 100-900 mg): well tolerated
- half-life [10]: 53 min
- half-life [11]: 23 min
- IC50 [12]: > 40 µM
- bound to human serum: 98%
- CC50 [13]: 14 to 48 µM
- AUC(0-inf) ([14]; iv, 5 mg/kg): 30 µM·h
- Cmax ([14]; iv, 5 mg/kg): 12.1 µM
- half-life ([14]; iv, 5 mg/kg): 672 min
- AUC(0-inf) ([14]; po, 10 mg/kg): 39.3 µM·h
- Cmax ([14]; po, 10 mg/kg): 3.26 µM
